From US20070142319A1, “Anxiolytic treatment by inhibition of a polysialyltransferase” (The Burnham Institute, priority 2004, published 2007)

How the values were obtained:
[1] = system: cell surface membrane resialylation; details: compounds that affect intracellular pools of CTP; cited from earlier work
CA3 mossy fiber synapses = experiment: Mossy fiber-CA3 extracellular recordings of fEPSPs in hippocampal slices; design: species or system mouse
Text: Hippocampal slices from five- to six-month-old ST8Sia-II-deficient mice and their wild-type littermates were used for recordings. After halothane anesthesia, decapitation and removal of the brain, the hippocampi were cut with a VT 1000M vibratome (Leica, Nussloch, Germany) in slices 300 μm thick in ice-cold artificial cerebrospinal fluid (ACSF) containing (in mM): 250 sucrose, 25 NaHCO3, 25 glucose, 2.5 KCl, 1.25 NaH2PO4, 2 CaCl2, and 1.5 MgCl2, pH 7.3. […]
The LTP-inducing high-frequency stimulation (HFS) consisted of one train of stimuli applied at 100 Hz during 1 sec once (“weak” stimulation protocol) or repeated four times with an interval of 20 sec (“strong” stimulation protocol). […] To additionally confirm that the fEPSPs recorded were evoked by the stimulation of mossy fibers and not by the associational/commissural pathway, an agonist of type II metabotropic glutamate receptors (L-CCG1, 10 μM; Tocris), which is known to reduce synaptic transmission in CA3 mossy fiber synapses (Manzoni, et al. Neuropharmacology (1995) 34:965-71), was applied at the end of each experiment. […] Basal synaptic transmission was monitored at 0.033 Hz. The mean amplitude of fEPSPs recorded 0-10 min before HFS was taken as 100%. Post-tetanic potentiation (PTP) was calculated as the maximal increase in the amplitude of fEPSP after HFS. […]

cultured neurons = details: acts as chain terminator after conversion to unnatural sialic acid derivative; cited from earlier work

O=C1C=CN([C@@H]2O[C@H](CO)[C@@H](O)[C@H]2O)C(=O)C1 [3-deazauridine]
cell surface membrane resialylation [1]: curtail

NC(CCCP(=O)(O)O)C(=O)O (stereo not drawn) [AP-5]
effect on the amplitude of recorded fEPSPs (CA3 mossy fiber synapses; AP-5 50 μM, wild-type or ST8Sia-II deficient samples): did not affect the amplitude

N[C@H](C(=O)O)[C@H]1C[C@@H]1C(=O)O [L-CCG1]
reduction of the amplitude of fEPSPs (CA3 mossy fiber synapses; L-CCG1 10 μM at end of experiment, similarly in both genotypes (wild-type and ST8Sia-II deficient)): 80%

CCCC(=O)N[C@@H]1C(O)O[C@H](CO)[C@@H](O)[C@@H]1O (stereo partly drawn) [N-butanoylmannosiamine]
PSA expression on cultured neurons (cultured neurons): inhibit PSA expression

N[C@H](C(=O)O)[C@@H]1CC(Cl)=NO1 [acivicin]
cell surface membrane resialylation [1]: curtail

Nc1ccn([C@@H]2O[C@H](CO)[C@@H](O)[C@@H]2O)c(=O)n1 [1-beta-D-arabinofuranosylcytosine]
cell surface membrane resialylation [1]: curtail
